Values belong to the molecule of their own block, whether it stands above or below them.
Key:
[1] = test system: patients (symptoms of the disease); assay: comparison testing of symptom changes in patients treated with potassium citrate or potassium tartarate; assay type: in vivo, human; details: FIGS. 6 and 7; 4 patients per compound; base condition, 10th and 20th day
Source text: The substitution of one or more components of the compound causes an inefficacy of the relevant different compound.
The graph of FIG. 6 is relevant to the changes in symptoms among 4 patients treated using potassium citrate, while the graph of FIG. 7 is relevant to the changes in symptoms among 4 patients treated using potassium tartarate. Similarly to the graph of FIG. 5, on abscissa each graph presents the different symptoms; from left to right-thoracic pain, abdominal pain, osteomuscular pain-dyspnea, cough, nausea, emesis, ascites, temperature, asthenia. The columns are composed by three secondary columns which refer to the different time of recording of the data, with 10 days interval; from left to right base condition (at the beginning of the treatment), at 10th day and at 20th day. Also in these cases the rate utilized as ordinate in the graph is relevant to the intensity (amount) of the symptoms.

[2] = water solubility of the salt; assay type: physicochemical
[3] = stability of the salt (oxidizability); assay type: physicochemical; details: due to its easy oxidizability
[4] = toxicity at the stated dosages; details: given the stated dosages; long-term use
[5] = test system: patients suffering from different types of neoplasia in advanced phase; assay: testing of potassium ribose ascorbate, given three times a day, in 30 terminally-ill neoplasia patients for more than ten years; assay type: in vivo, human
Procedure: In FIGS. 2-5 and 8-11 are shown the results of a testing carried out for more than ten years. The testing was carried out on a sample of 30 patients suffering from different types of neoplasia in advanced phase (terminally-ill patients).
The patients were given potassium ribose ascorbate three times a day.
The integrator of the present invention not only allows a good survival percentage but also improves the symptoms of the diseases. In FIG. 5 is a graph showing the changes in ten symptoms among the patients above mentioned. On abscissa the graph presents the different symptoms; from left to right thoracic pain, abdominal pain, osteomuscular pain, dyspnea, cough, nausea, emesis, ascites, temperature, asthenia. Every column is composed by five secondary columns which refer to the different time of recording of the data, with 15 days interval, from left to right: base condition (at the beginning of the treatment), at 15th day, at 30th day, at 45th and at 60th day The rate utilized as ordinate in the graph is relevant to the intensity (amount) of the symptoms. This rate is a normalized value among the different rates utilized for measuring the ten symptoms (i.e. degrees for the temperature, an objective value for pain, cough, etc). A higher rate means a higher means intensity of the symptom.
In particular, FIG.8 is relevant to the mean changes in the hemoglobin rate, in the graph, the abscissa is divided in steps corresponding to 15 days intervals, while the ordinate is expressed in g/dl. FIG. 9 is relevant to the mean changes in the white cells number; in the graph, the abscissa is divided in steps corresponding to 15 days intervals, while the ordinate is expressed in number of cells. FIG. 10 is relevant to the mean changes in the red cells number; in the graph, the abscissa is divided in steps corresponding to 15 days intervals, while the ordinate is expressed in thousands of cells. FIG. 11 is relevant to the mean changes in the erythrosedimentation rate at first hour; in the graph, the abscissa is divided in steps corresponding to 15 days intervals, while the ordinate is expressed in erythrosedimentation rate.

Molecule: O=C([O-])CC(O)(CC(=O)[O-])C(=O)[O-].[K+].[K+].[K+] [potassium citrate]
change in intensity of ten symptoms [1]: substantially increasing symptoms rate

Molecule: O=C([O-])C(O)C(O)C(=O)[O-].[K+].[K+] (stereo not shown) [potassium tartarate]
change in intensity of ten symptoms [1]: substantially increasing symptoms rate

solubility in water [2]: easily water-soluble
stability [3]: somewhat unstable
Molecule: potassium ribosate
toxicity [4]: does not produce any toxicity

Molecule: potassium ribose ascorbate
survival percentage after five years ([5]; FIG. 2, terminally-ill patients, by location of neoplasia: brain, breast, lung, ovary, prostate, skin): very high
survival percentage after ten years ([5]; FIG. 3, terminally-ill patients, by location of neoplasia: brain, breast, lung, ovary, prostate, skin): very high
change in intensity of ten symptoms (thoracic, abdominal, osteomuscular pain, dyspnea, cough, nausea, emesis, ascites, temperature, asthenia) ([5]; FIG. 5, normalized rate, base condition, 15th, 30th, 45th and 60th day): all symptoms decreased
mean changes in the hemoglobin rate ([5]; FIG. 8, 15 days intervals, ordinate in g/dl): increasing rates
mean changes in the white cells number ([5]; FIG. 9, 15 days intervals, ordinate in number of cells): increasing rates
mean changes in the red cells number ([5]; FIG. 10, 15 days intervals, ordinate in thousands of cells): increasing rates
mean changes in the erythrosedimentation rate at first hour ([5]; FIG. 11, 15 days intervals): decreasing rate
stability [3]: somewhat unstable

Reference: patent US6416791B1, “Alimentary integrator” (priority 1999, dated 2002)
